Read-outs that look alike come from different tables or passages of the source.
Tests used:
jack bean urease = jack bean urease (Canavalia ensiformis, UniProt P07374); test: biochemical; type: biochemical; settings: for % Inhibition (urease): value in parentheses beside IC50; for urease inhibition (in words): qualitative statement
Protocol: Briefly, DMSO was used to dissolve the synthesized conjugates (inhibitors, 250–0.49 µM) and the reference urease inhibitor (thiourea). Each falcon tube contained the respective inhibitor (20 µL), buffer (K2HPO4, 100 µL, 50 mM, pH = 6.8), and jack bean urease (20 µL); each tube was mixed well; and the mixtures were incubated for 30 min at 37 °C. Each tube received 400 µL of urea (20 mM) as a substrate, which was then incubated for 10 min at the same temperature. Afterward, each tube received 400 µL of phenol reagent and 750 µL of alkali reagent containing 0.1% active chlorine and was left at 37 °C for 50 min. Following the use of a spectrophotometer (Labdex, LX210DS, London, UK) to measure absorbance of the mixture in each tube at 595 nm, Equation (1) below was used to compute the percentage of urease inhibition: (1) % Urease inhibition=1−T/C×100 where, T and C are the absorbance of each well containing inhibitor and blank, respectively. The results are presented as mean ± SEM. Using a regression equation where 50% inhibition was seen, the IC50 values of each inhibitor were determined.

urease = urease (Canavalia ensiformis, UniProt P07374); test: biochemical; type: biochemical, jack bean; settings: for Mode of Inhibition: Lineweaver–Burk plot, inhibitor 0–20 µM, urea 0.5–4.0 mM; for Vmax (app): intercept, the maximum rate at 20 µM of inhibitor concentration
urease, sequence (P07374 whole entry, looked up): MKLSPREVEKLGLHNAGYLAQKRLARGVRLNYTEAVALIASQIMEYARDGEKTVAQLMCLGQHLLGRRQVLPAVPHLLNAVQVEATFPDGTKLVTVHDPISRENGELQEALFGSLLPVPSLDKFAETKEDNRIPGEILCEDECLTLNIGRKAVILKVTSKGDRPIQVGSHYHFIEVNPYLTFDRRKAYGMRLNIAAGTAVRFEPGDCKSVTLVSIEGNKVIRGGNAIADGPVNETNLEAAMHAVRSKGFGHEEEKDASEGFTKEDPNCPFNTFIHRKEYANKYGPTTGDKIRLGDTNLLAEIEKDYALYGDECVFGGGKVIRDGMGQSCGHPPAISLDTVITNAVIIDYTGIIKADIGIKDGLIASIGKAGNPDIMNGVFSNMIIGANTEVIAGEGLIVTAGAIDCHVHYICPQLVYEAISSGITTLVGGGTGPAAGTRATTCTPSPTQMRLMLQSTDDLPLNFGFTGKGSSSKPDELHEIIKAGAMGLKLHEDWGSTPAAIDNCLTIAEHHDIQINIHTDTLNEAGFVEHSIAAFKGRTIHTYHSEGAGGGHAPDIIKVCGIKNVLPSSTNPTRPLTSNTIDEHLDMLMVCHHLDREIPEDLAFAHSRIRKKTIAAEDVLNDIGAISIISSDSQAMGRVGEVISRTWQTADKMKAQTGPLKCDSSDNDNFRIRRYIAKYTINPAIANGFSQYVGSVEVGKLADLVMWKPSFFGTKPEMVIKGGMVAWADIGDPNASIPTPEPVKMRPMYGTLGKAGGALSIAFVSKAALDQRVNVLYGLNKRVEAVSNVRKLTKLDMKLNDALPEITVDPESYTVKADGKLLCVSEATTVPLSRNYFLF
Protocol: The kinetics studies were performed by using five different concentrations (0.0, 5.0, 10.0, 15.0, and 20.0 µM) of each conjugate while using four different concentrations of urea (0.5, 1.0, 2.0, and 4.0) as substrate.
The Lineweaver–Burk plot is a powerful tool for analyzing enzyme kinetics and determining the mode of inhibition of an enzyme by a particular conjugate. […] In a Lineweaver–Burk plot, competitive inhibition is characterized by a change in the slope of the line (Km, also called the Michaelis constant), whereas the intercept remains the same (Vmax, the maximum rate). […] The inhibition constant (Ki) value of each conjugate was also calculated by plotting the slope of each line vs. different concentrations of each conjugate, also called secondary Lineweaver–Burk plots.
When there is mixed-type inhibition, the enzyme–substrate complex is bound by the inhibitor molecule, which prevents the reaction from happening, and increasing the substrate concentration will not remove this kind of inhibition. In a Lineweaver–Burk plot, mixed-type inhibition is characterized by a change in both the slope (Km) and the intercept of the line (Vmax).
With a few minor modifications, the urease inhibition experiment was carried out as described in our past research [3, 4, 5]. Briefly, DMSO was used to dissolve the synthesized conjugates (inhibitors, 250–0.49 µM) and the reference urease inhibitor (thiourea). Each falcon tube contained the respective inhibitor (20 µL), buffer (K2HPO4, 100 µL, 50 mM, pH = 6.8), and jack bean urease (20 µL); each tube was mixed well; and the mixtures were incubated for 30 min at 37 °C. Each tube received 400 µL of urea (20 mM) as a substrate, which was then incubated for 10 min at the same temperature. Afterward, each tube received 400 µL of phenol reagent and 750 µL of alkali reagent containing 0.1% active chlorine and was left at 37 °C for 50 min. Following the use of a spectrophotometer (Labdex, LX210DS, London, UK) to measure absorbance of the mixture in each tube at 595 nm, Equation (1) below was used to compute the percentage of urease inhibition: (1) % Urease inhibition=1−T/C×100 where, T and C are the absorbance of each well containing inhibitor and blank, respectively. The results are presented as mean ± SEM. Using a regression equation where 50% inhibition was seen, the IC50 values of each inhibitor were determined. Each inhibitor’s binding mechanism was tested at various doses (0–20 µM) for kinetics investigations. Urea was used as a substrate in different concentrations (0.5–4.0 mM) to determine the mode of inhibition of the inhibitors, including whether they acted as uncompetitive, mixed (non-competitive), or competitive. GraphPad PRISM 7.0 was used to create Lineweaver–Burk plots, which were then used to calculate the values of Km (app), Vmax (app), and Ki (inhibition constant).

jack bean urease, sequence (P07374 whole entry, looked up): as above

For `CC(C)Cc1ccc(C(C)C(=O)Nc2ccc(S(N)(=O)=O)cc2)cc1` (stereo not drawn) [Conjugate 4, 2-(4-Isobutylphenyl)-N-(4-sulfamoylphenyl)propanamide], the IC50 (jack bean urease) was 14.26 ± 0.14 µM, the “% Inhibition (urease)” value (jack bean urease; jack bean urease) was 84.2% and the Ki (urease) was 8.2 µM. For the same molecule, the “Mode of Inhibition” value (urease) was “Mixed”, the “Vmax (app)” value (urease) was 3.64 µM/min and the melting point was 147 to 150 °C.

For `Cc1noc(NS(=O)(=O)c2ccc(NC(=O)C(C)c3ccc(CC(C)C)cc3)cc2)c1C` (stereo not drawn) [Conjugate 5, N-(4-(N-(3,4-Dimethylisoxazol-5-yl)sulfamoyl)phenyl)-2-(4-isobutylphenyl)propanamide], the IC50 (jack bean urease) was 23.3 ± 0.41 µM and the “% Inhibition (urease)” value (jack bean urease; jack bean urease) was 84.0%.

With `CC(C)Cc1ccc(C(C)C(=O)Nc2ccc(S(=O)(=O)Nc3nccs3)cc2)cc1` (stereo not drawn) [Conjugate 6, 2-(4-Isobutylphenyl)-N-(4-(N-(thiazol-2-yl)sulfamoyl)phenyl)propanamide] the IC50 (jack bean urease) was 9.95 ± 0.14 µM, the “% Inhibition (urease)” value (jack bean urease; jack bean urease) was 90.6% and the Ki (urease) was 0.17 µM. The “Mode of Inhibition” value (urease) was “Competitive”, the “Vmax (app)” value (urease) was 1.39 µM/min and the melting point was 184 to 185 °C.

For `CC(C)Cc1ccc(C(C)C(=O)Nc2ccc(S(=O)(=O)Nc3ncccn3)cc2)cc1` (stereo not drawn) [Conjugate 7, 2-(4-Isobutylphenyl)-N-(4-(N-(pyrimidin-2-yl)sulfamoyl)phenyl)propanamide], the IC50 (jack bean urease) was 50.2 ± 1.24 µM, the “% Inhibition (urease)” value (jack bean urease; jack bean urease) was 71.6% and the “urease inhibition (in words)” value (jack bean urease) was “moderate inhibition”. For the same molecule, the melting point was 171 to 173 °C.

In the case of `Cc1ccnc(NS(=O)(=O)c2ccc(NC(=O)C(C)c3ccc(CC(C)C)cc3)cc2)n1` (stereo not drawn) [Conjugate 8, 2-(4-Isobutylphenyl)-N-(4-(N-(4-methylpyrimidin-2yl)sulfamoyl)phenyl)propanamide], the IC50 (jack bean urease) is reported as 12.4 ± 0.54 µM, the “% Inhibition (urease)” value (jack bean urease; jack bean urease) is reported as 87.7% and the Ki (urease) is reported as 3.01 µM. For the same molecule, the “Mode of Inhibition” value (urease) was “Mixed”, the “Vmax (app)” value (urease) was 3.0 µM/min and the melting point was 152 to 154 °C.

For `Cc1cc(NS(=O)(=O)c2ccc(NC(=O)C(C)c3ccc(CC(C)C)cc3)cc2)no1` (stereo not drawn) [Conjugate 9, 2-(4-Isobutylphenyl)-N-(4-(N-(5-methylisoxazol-3-yl)sulfamoyl)phenyl)propanamide], the IC50 (jack bean urease) was 39.9 ± 1.17 µM, the “% Inhibition (urease)” value (jack bean urease; jack bean urease) was 76.7% and the “urease inhibition (in words)” value (jack bean urease) was “moderate inhibition”.

With `CC(=O)NS(=O)(=O)c1ccc(NC(=O)C(C)c2ccc(CC(C)C)cc2)cc1` (stereo not drawn) [Conjugate 10, N-(4-(N-Acetylsulfamoyl)phenyl)-2-(4-isobutylphenyl)propanamide] the IC50 (jack bean urease) was 10.3 ± 0.11 µM, the “% Inhibition (urease)” value (jack bean urease; jack bean urease) was 88.9% and the Ki (urease) was 2.62 µM. For the same molecule, the “Mode of Inhibition” value (urease) was “Mixed”, the “Vmax (app)” value (urease) was 1.04 µM/min and the melting point was 152 to 155 °C.

With `CC(C)Cc1ccc(C(C)C(=O)Nc2ccc(S(=O)(=O)NC(=N)N)cc2)cc1` (stereo not drawn) [Conjugate 11, N-(4-(N-Carbamimidoylsulfamoyl)phenyl)-2-(4-isobutylphenyl)propanamide] the IC50 (jack bean urease) was 44.5 ± 1.41 µM, the “% Inhibition (urease)” value (jack bean urease; jack bean urease) was 78.7% and the “urease inhibition (in words)” value (jack bean urease) was “moderate inhibition”. It also gave a melting point of 138 to 139 °C.

With `CC(C(=O)Nc1ccc(S(N)(=O)=O)cc1)c1ccc(-c2ccccc2)c(F)c1` (stereo not drawn) [Conjugate 12, 2-(2-Fluoro-[1,1′-biphenyl]-4-yl)-N-(4-sulfamoylphenyl)propanamide] the IC50 (jack bean urease) was 24.92 ± 0.24 µM, the “% Inhibition (urease)” value (jack bean urease; jack bean urease) was 82.1% and the melting point was 147 to 150 °C.

In the case of `Cc1noc(NS(=O)(=O)c2ccc(NC(=O)C(C)c3ccc(-c4ccccc4)c(F)c3)cc2)c1C` (stereo not drawn) [Conjugate 13, N-(4-(N-(3,4-Dimethylisoxazol-5-yl)sulfamoyl)phenyl)-2-(2-fluoro-[1,1′-biphenyl]-4-yl)propanamide], the IC50 (jack bean urease) is reported as 35.3 ± 0.21 µM, the “% Inhibition (urease)” value (jack bean urease; jack bean urease) is reported as 84.6% and the melting point is reported as 128 to 130 °C.

In the case of `CC(C(=O)Nc1ccc(S(=O)(=O)Nc2nccs2)cc1)c1ccc(-c2ccccc2)c(F)c1` (stereo not drawn) [Conjugate 14, 2-(2-Fluoro-[1,1′-biphenyl]-4-yl)-N-(4-(N-(thiazol-2-yl)sulfamoyl)phenyl)propanamide], the IC50 (jack bean urease) is reported as 63.4 ± 1.15 µM, the “% Inhibition (urease)” value (jack bean urease; jack bean urease) is reported as 60.4% and the “urease inhibition (in words)” value (jack bean urease) is reported as “moderate inhibition”. It also gave a melting point of 137 to 140 °C.

For `CC(C(=O)Nc1ccc(S(=O)(=O)Nc2ncccn2)cc1)c1ccc(-c2ccccc2)c(F)c1` (stereo not drawn) [Conjugate 15, 2-(2-Fluoro-[1,1′-biphenyl]-4-yl)-N-(4-(N-(pyrimidin-2-yl)sulfamoyl)phenyl)propanamide], the IC50 (jack bean urease) was 16.7 ± 0.23 µM, the “% Inhibition (urease)” value (jack bean urease; jack bean urease) was 84.1% and the Ki (urease) was 7.95 µM. For the same molecule, the “Mode of Inhibition” value (urease) was “Competitive”, the “Vmax (app)” value (urease) was 1.89 µM/min and the melting point was 155 to 158 °C.

In the case of `Cc1ccnc(NS(=O)(=O)c2ccc(NC(=O)C(C)c3ccc(-c4ccccc4)c(F)c3)cc2)n1` (stereo not drawn) [Conjugate 16, 2-(2-Fluoro-[1,1′-biphenyl]-4-yl)-N-(4-(N-(4-methylpyrimidin-2-yl)sulfamoyl)phenyl)propanamide], the IC50 (jack bean urease) is reported as 17.5 ± 0.76 µM, the “% Inhibition (urease)” value (jack bean urease; jack bean urease) is reported as 86.1% and the Ki (urease) is reported as 1.3 µM. The “Mode of Inhibition” value (urease) was “Mixed” and the “Vmax (app)” value (urease) was 1.01 µM/min.

With `Cc1cc(NS(=O)(=O)c2ccc(NC(=O)C(C)c3ccc(-c4ccccc4)c(F)c3)cc2)no1` (stereo not drawn) [Conjugate 17, 2-(2-Fluoro-[1,1′-biphenyl]-4-yl)-N-(4-(N-(5-methylisoxazol-3-yl)sulfamoyl)phenyl)propanamide] the IC50 (jack bean urease) was 13.39 ± 0.11 µM, the “% Inhibition (urease)” value (jack bean urease; jack bean urease) was 86.1% and the Ki (urease) was 10.4 µM. For the same molecule, the “Mode of Inhibition” value (urease) was “Competitive” and the “Vmax (app)” value (urease) was 1.56 µM/min.

In the case of `CC(=O)NS(=O)(=O)c1ccc(NC(=O)C(C)c2ccc(-c3ccccc3)c(F)c2)cc1` (stereo not drawn) [Conjugate 18, N-(4-(N-Acetylsulfamoyl)phenyl)-2-(2-fluoro-[1,1′-biphenyl]-4-yl)propanamide], the IC50 (jack bean urease) is reported as 14.8 ± 0.16 µM, the “% Inhibition (urease)” value (jack bean urease; jack bean urease) is reported as 87.1% and the Ki (urease) is reported as 4.11 µM. For the same molecule, the “Mode of Inhibition” value (urease) was “Mixed”, the “Vmax (app)” value (urease) was 1.02 µM/min and the melting point was 187 to 190 °C.

In the case of `CC(C(=O)Nc1ccc(S(=O)(=O)NC(=N)N)cc1)c1ccc(-c2ccccc2)c(F)c1` (stereo not drawn) [Conjugate 19, N-(4-(N-Carbamimidoylsulfamoyl)phenyl)-2-(2-fluoro-[1,1′-biphenyl]-4-yl)propanamide], the IC50 (jack bean urease) is reported as 33.83 ± 0.18 µM, the “% Inhibition (urease)” value (jack bean urease; jack bean urease) is reported as 83.8% and the melting point is reported as 163 to 165 °C.

For `NC(N)=S` [Thiourea, reference compound], the IC50 (jack bean urease; jack bean urease, urea substrate, pH 6.8, 37 °C, mean ± SEM, read-out: IC50 (µM), Mean ± SEM) was 22.6 ± 0.23 µM, the “% Inhibition (urease)” value (jack bean urease; jack bean urease) was 92.3% and the “Mode of Inhibition” value (urease) was “Competitive”. For the same molecule, the Ki (urease; from secondary Lineweaver–Burk plots, read-out: Ki (inhibition constant)) was 18.2 µM, the “Vmax (app)” value (urease) was 18.61 µM/min and the Km (urease; slope of the line (Michaelis constant) at 20 µM of inhibitor concentration, read-out: Km (app)) was 2180 µM.

Source: article PMC10386649, “New Acetamide-Sulfonamide-Containing Scaffolds: Antiurease Activity Screening, Structure-Activity Relationship, Kinetics Mechanism, Molecular Docking, and MD Simulation Studies” (Molecules, 2023)
